This note sets out measurements from US6207671A, “Cycloalkano-pyridines” (Bayer Aktiengesellschaft, priority 1996, dated 2001).

The subject of experiment [1] is CETP. As to the kind of experiment: Ex vivo activity: CETP activity in serum of treated hamsters (modified CETP test). Further details: species or system Syrian golden hamsters. To be noted: for % Inhibition at 30 mg/kg: ex vivo CETP activity in hamster serum; for ED50 values for ex vivo activity: hamster serum, up to 24 hours after administration. As for the experimental part:
Syrian golden hamsters from in-house breeding are anaesthetized after fasting for 24 hours (0.8 mg/kg of atropine, 0.8 mg/kg of Ketavet® s.c., 30'later 50 mg/kg of Nembutal i.p.). The jugular vein is then exposed and cannulated. The test substance is dissolved in a suitable solvent (as a rule Adalat placebo solution: 60 g of glycerol, 100 ml of H2 O, PEG-400 to 1000 ml) and administered to the animals via a PE catheter inserted in the jugular vein. The control animals receive the same volume of solvent without test substance. The vein is then tied off and the wound is closed. The administration of the test substances can also be carried out p.o., by orally administering the substances dissolved in DMSO and suspended in 0.5% Tylose by means of a stomach tube. The control animals receive identical volumes of solvent without test substance.
After various times--up to 24 hours after administration--blood (about 250 μl) is taken from the animals by puncture of the retro-orbital venous plexus. Clotting is ended by incubation at 4° C. overnight, then centrifugation is carried out at 6000×g for 10 minutes. In the serum thus obtained, CETP activity is determined by the modified CETP test. As for the CETP test described above, the transfer of ^3 H-cholesterol ester from HD lipoproteins to biotinylated LD lipoproteins is measured.
The reaction is ended by addition of Streptavidin-SPA®beads (Amersham) and the transferred radioactivity is determined directly in the liquid scintillation counter.
The test mixture is carried out as described under "CETP test". For the testing of the serum, only 10 μl of CETP are replaced by 10 μl of the corresponding serum samples. As controls, corresponding incubations with sera of untreated animals are used.
The activity transferred in the control mixtures with control sera is rated as 100% transfer. The substance concentration at which this transfer is reduced to a half is indicated as the ED50 value.

The target of experiment [2] is T1, cholesterol ester transfer protein (CETP) (Homo sapiens, UniProt P11597).
T1 construct: CETP is obtained from human plasma in partially purified form; from tissue; host or cells: human plasma
T1 sequence (P11597 18-493): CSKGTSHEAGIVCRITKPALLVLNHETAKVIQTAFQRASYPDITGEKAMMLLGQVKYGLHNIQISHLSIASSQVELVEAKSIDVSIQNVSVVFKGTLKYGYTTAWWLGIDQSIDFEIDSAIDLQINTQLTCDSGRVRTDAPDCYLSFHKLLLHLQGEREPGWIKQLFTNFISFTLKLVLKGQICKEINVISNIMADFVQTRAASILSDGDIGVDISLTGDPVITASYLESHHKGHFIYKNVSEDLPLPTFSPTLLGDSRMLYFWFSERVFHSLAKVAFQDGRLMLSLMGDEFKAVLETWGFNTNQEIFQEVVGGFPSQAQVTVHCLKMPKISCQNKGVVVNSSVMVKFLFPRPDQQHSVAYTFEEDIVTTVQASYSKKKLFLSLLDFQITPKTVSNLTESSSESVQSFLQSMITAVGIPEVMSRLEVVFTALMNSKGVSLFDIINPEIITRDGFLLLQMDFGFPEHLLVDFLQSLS
In words: CETP inhibition test: transfer of 3H-cholesterol ester from human HD lipoproteins to biotinylated LD lipoproteins (SPA). It counts as biochemical. To be noted: human plasma CETP, 18 h, 37° C. As for the experimental part: CETP is obtained from human plasma in partially purified form by differential centrifugation and column chromatography and used for the test. To this end, human plasma is adjusted to a density of 1.21 g per ml using NaBr and centrifuged at 4° C. for 18 h at 50,000 rpm. The bottom fraction (d>1.21 g/ml) is applied to a Sephadex®phenyl-sepharose 4B (Pharmacia) column, washed with 0.15 M NaCl/0.001 M trisHCl pH 7.4 and then eluted with distilled water. The CETP-active fractions are pooled, dialysed against 50 mM Na acetate pH 4.5 and applied to a CM-Sepharose® (Pharmacia) column. The column is then eluted using a linear gradient (0-1 M NaCl). The pooled CETP fractions are dialysed against 10 mM trisHCl pH 7.4 and then further purified by chromatography on a Mono Q® column (Pharmacia).
50 ml of fresh human EDTA plasma are adjusted to a density of 1.12 using NaBr and centrifuged at 50,000 rpm for 18 h at 4° C. in a Ty 65 rotor. The upper phase is used to obtain cold LDL. The lower phase is dialysed against 3×4 l of PDB buffer (10 mM tris/HCl pH 7.4, […] NaCl, 1 mM EDTA, 0.02% NaN3). 20 μl of ^3 H-cholesterol (Dupont NET-725; 1 μC/μl dissolved in ethanol) are then added per 10 ml of retentate volume and the mixture is incubated under N2 at 37° C. for 72 h.
The mixture is then adjusted to the density 1.21 using NaBr and centrifuged at 20° C. for 18 h at 50,000 rpm in the Ty 65 rotor. The upper phase is recovered and the lipoprotein fractions are purified by gradient centrifugation. To this end, the isolated, labelled lipoprotein fraction is adjusted to a density of 1.26 using NaBr. Each 4 ml of this solution are covered with a layer of 4 ml of a solution of density 1.21 and 4.5 ml of a solution of 1.063 (density solutions from PDB buffer and NaBr) in centrifuge tubes (SW 40 rotor) and then centrifuged in the SW 40 rotor for 24 h at 38,000 rpm and 20° C. The intermediate layer lying between the densities 1.063 and 1.21 and containing the labelled HDL is dialysed at 4° C. against 3×100 volumes of PDB buffer.
The retentate contains radiolabelled ^3 H-CE-HDL which, adjusted to about 5×10^6 cmp per ml, is used for the test.
To test the CETP activity, the transfer of ^3 H-cholesterol ester from human HD lipoproteins to biotinylated LD lipoproteins is measured.
The reaction is ended by addition of streptavidin-SPA®beads (Amersham) and the transferred radioactivity is determined directly in a liquid scintillation counter.
In the test mixture, 10 μl of HDL-^3 H-cholesterol ester (~50,000 cpm) are incubated at 37° C. for 18 h with 10 μl of biotin-LDL (Amersham) in 50 mM Hepes/0.15 M NaCl/0.1% bovine serum albumin/0.05% NaN3 pH 7.4 with 10 μl of CETP (1 mg/ml) and 3 μl of solution of the substance to be tested (dissolved in 10% DMSO/1% RSA). 200 μl of the SPA-streptavidin bead solution (TRKQ 7005) are then added, the mixture is incubated further for 1 h with shaking and then measured in the scintillation counter. As controls, corresponding incubations with 10 μl of buffer, 10 μl of CETP at 4° C. and 10 μl of CETP at 37° C. are used.
The activity transferred into the control mixtures with CETP at 37° C. is rated as 100% transfer. The substance concentration at which this transfer is reduced by half is indicated as the IC50 value.

Experiment [3] concerns HDL cholesterol. In words: In vivo activity: oral action on lipoproteins and triglycerides in hamsters (HDL rise). The conditions noted are these: dose 2 × 3 mg/kg, up to 24 hours. Details: species or system Syrian golden hamsters. The procedure:
In experiments to determine the oral action on lipoproteins and triglycerides, test substance dissolved in DMSO and 0.5% Tylose suspended by means of a stomach tube are administered orally to Syrian golden hamsters from in-house breeding. To determine the CETP activity, blood (about 250 μl) is taken by retro-orbital puncture before the start of the experiment. The test substances are then administered orally by means of a stomach tube. The control animals receive identical volumes of solvents without test substance. The feed is then withdrawn from the animals and blood is taken at various times--up to 24 hours after substance administration--by puncture of the retro-orbital venous plexus. Clotting is ended by incubation at 4° C. overnight, then centrifugation at 6000×g is carried out for 10 minutes. In the serum thus obtained, the content of cholesterol and triglycerides is determined with the aid of modified commercially available enzyme tests (cholesterol enzymatic 14366 Merck, triglycerides 14364 Merck). Serum is suitably diluted using physiological saline solution.
100 μl of serum dilution are mixed with 100 μl of […] in 96-hole plates and incubated at room temperature for 10 minutes. The optical density is then determined at a wavelength of 492 nm using an automatic plate-reading apparatus. The triglyceride or cholesterol concentration contained in the samples is determined with the aid of a standard curve measured in parallel.
The determination of the content of HDL cholesterol is carried out according to the manufacturer's instructions after precipitation of the ApoB-containing lipoproteins by means of a reagent mixture (Sigma 352-4 HDL cholesterol reagent).

What is called % Inhibition is the share of the control response that was lost under treatment. A low value points to a response near the control. As to `CC1Cc2nc(C3CCCC3)c(C(F)c3ccc(C(F)(F)F)cc3F)c(-c3ccc(F)cc3)c2C(O)C1` (single isomer, unassigned) [Example 181], in experiment [1], the “% Inhibition at 30 mg/kg” value turned out to be 46.4% and the “ED50 values for ex vivo activity” value is recorded as over 30 mg/kg.

What is called IC50 is the concentration needed to halve the response being measured. Take `CC(C)c1nc2c(c(-c3ccc(F)cc3)c1C(F)c1ccc(C(F)(F)F)cc1)C(O)CC1(CCCC1)C2` (single isomer, unassigned) [Example 291]: half-maximal inhibition in experiment [2] (IC50) required 30 nM.

Turning to `OC1CC2(CCCC2)Cc2nc(C3CCCC3)c(C(F)c3ccc(C(F)(F)F)cc3)c(-c3ccc(F)cc3)c21` (single isomer, unassigned) [Example 300], in experiment [2], the IC50 was 0.2 nM.

As to `CC1(C)Cc2nc(C3CCCC3)c(C(F)c3ccc(Cl)c(C(F)(F)F)c3)c(-c3ccc(F)cc3)c2C(O)C1` (single isomer, unassigned) [Example 170], in experiment [1], the “% Inhibition at 30 mg/kg” value stood at 60.1% and the “ED50 values for ex vivo activity” value is listed as under 30 mg/kg.

Regarding `CC(C)c1nc2c(c(-c3ccc(F)cc3)c1C(F)c1ccc(C(F)(F)F)cc1)C(O)CC1CC21` (single isomer, unassigned) [Example 237], the IC50 in experiment [2] was determined as 800 nM. For the same compound, in experiment [3], the “% HDL rise” value is on record as “+21.03%”.

As to `CC1(C)Cc2nc(C3CCCC3)c(C(F)c3ccc4ccccc4c3)c(-c3ccc(F)cc3)c2C(O)C1` (single isomer, unassigned) [Example 184], in experiment [1], the “% Inhibition at 30 mg/kg” value was 53.5% and the “ED50 values for ex vivo activity” value is under 30 mg/kg.

`OC1CC2(CCC2)Cc2nc(C3CCCC3)c(C(F)c3ccc(C(F)(F)F)cc3)c(-c3ccc(F)cc3)c21` (stereo not drawn) [Example 329] returned an IC50 in experiment [2] of 1.5 nM.

Turning to `CC1Cc2nc(C(C)C)c(C(F)c3ccc(C(F)(F)F)cc3)c(-c3ccc(F)cc3)c2C(O)C1` (stereo not drawn) [Example 115], in experiment [1], the “% Inhibition at 30 mg/kg” value was determined as 61.9% and the “ED50 values for ex vivo activity” value is on record as under 30 mg/kg.

For the compound `CC1(C)Cc2nc(C3CCCC3)c(C(F)c3ccc(C(F)(F)F)cc3)c(-c3ccc(F)cc3)c2C(O)C1` (single isomer, unassigned) [Example 91], the “% HDL rise” value in experiment [3] is given as “+12.58%”.

Regarding `CC1Cc2nc(C(C)C)c(C(F)c3ccc(C(F)(F)F)cc3)c(-c3ccc(F)cc3)c2C(O)C1` (stereo not drawn) [Example 117], in experiment [1], the “% Inhibition at 30 mg/kg” value is 86.0% and the “ED50 values for ex vivo activity” value is recorded as under 30 mg/kg.

As to `OCC1Cc2nc(C3CCCC3)c(C(F)c3ccc(C(F)(F)F)cc3)c(-c3ccc(F)cc3)c2C(O)C1` (single isomer, unassigned) [Example 211], the “% HDL rise” value in experiment [3] is reported as “+7.54%”.

In experiment [2], `CC1(C)Cc2nc(C3CCCC3)c(C(N=[N+]=[N-])c3ccc(C(F)(F)F)cc3)c(-c3ccc(F)cc3)c2C(O)C1` (stereo not drawn) [Example 195] returned an IC50 of 750 nM.

`OC1CC(C2CC2)Cc2nc(C3CCCC3)c(C(F)c3ccc(C(F)(F)F)cc3)c(-c3ccc(F)cc3)c21` (stereo not drawn) [Example 209]: the “% HDL rise” value in experiment [3] was “+25.94%”.

Turning to `CC1(C)Cc2nc(C3CCCC3)c(C(F)c3ccc4c(c3)OC(F)(F)O4)c(-c3ccc(F)cc3)c2C(O)C1` (single isomer, unassigned) [Example 244], it took 60 nM to reach half-maximal inhibition in experiment [2] (IC50).

Compound `CC(C)c1nc2c(c(-c3ccc(F)cc3)c1C(F)c1ccc(C(F)(F)F)cc1)C(O)CC1(CC1)C2` (single isomer, unassigned) [Example 313] registered an IC50 in experiment [2] of 0.2 nM.

Regarding `CC(C)c1nc2c(c(-c3ccc(F)cc3)c1C(F)c1ccc(C(F)(F)F)cc1)C(O)CC(C)(C)C2` (single isomer, unassigned) [Example 90], it took 60 nM to reach half-maximal inhibition in experiment [2] (IC50).

Take `CC(C)c1nc2c(c(-c3ccc(F)cc3)c1C(F)c1ccc(C(F)(F)F)cc1)C(O)CC1(CC1)C2` (single isomer, unassigned) [Example 312]: the IC50 in experiment [2] was determined as 60 nM.

Compound `OC1CC2(CC2)Cc2nc(C3CCCC3)c(C(F)c3ccc(C(F)(F)F)cc3)c(-c3ccc(F)cc3)c21` (single isomer, unassigned) [Example 319] displayed an IC50 in experiment [2] of 50 nM.
